Laboratory results from patent publication US9884874B2, “Bromodomain-inhibiting compounds and pharmaceutical composition comprising same for preventing or treating a cancer” (KAINOS MEDICINE, INC., priority 2014, dated 2018).

Legend:
human BRD4 bromodomain 1 = human BRD4 bromodomain 1 (Homo sapiens (Human), UniProt O60885); assay: Bromodomain binding assay (BRD4 Alpha-screen); details: acetylated histone H4 peptide
Method: Bromodomain binding assays were carried out in Reaction Biology (PA, USA) to test the degrees of the inventive compounds in inhibiting the human BRD4 bromodomain 1 by Alpha-screen assay method.
Recombinant human BRD4 bromodomain 1 expressed in E. coli with N-terminal His-tag was used as the enzyme target.
A synthetic peptide ([…]-GSGSK-biotin) containing 1 to 21th amino acids of histone H4 acetylated at lysine 5, 8, 12 and 16 and conjugated to biotin was purchased from Millipore.
BRD4-1 (44 to 170th amino acids; Genbank Accession # NM_058243) was expressed in E. coli with N-terminal His-tag (see, Ni-NTA spin Kit Handbook (Qiagen), second edition, January, 2008). Nickel-Chelate ALPHA acceptor beads (Perkin Elmer) were used to specifically bind BRD4-1, and ALPHA streptavidin donor beads (Perkin Elmer) were used because they specifically recognized the biotinylated H4 peptide.
BRD binding assays were performed in a mixture comprising 50 mM Hepes (pH7.5), 100 mM NaCl, 0.05% CHAPS, 0.1% BSA, and 1% DMSO. After an assay reaction time of 60 min at 25° C., binding was measured with streptavidin donor beads and nickel-chelate acceptor beads. ALPHA signal was detected on Enspire (Ex/Em=680/520-620 nm). IC50 values were calculated from the fit of the dose-response curves. All IC50 values represent geometric mean values of a minimum of four determinations. These assays generally produced results within 3-fold of the reported mean.

[1] = Mouse liver microsomal stability/clearance; format: in vitro ADME
Method: (§1) Human and mouse liver microsomal clearance assays were carried out in CROWN Biosciences (Taicang, China). The human liver microsomes (Cat No. X008067, Lot No. KQB) and mouse liver microsomes (Cat No. M1000, Lot No. 1210302) were purchased from Celsis and Xenotech, respectively.
(§2) 5 μL of test compound stock solution was diluted with 495 μL of 1:1 Methanol/Water (final concentration: 100 μM, 50% MeOH) and combined with 534 μL of the respective liver microsome solution (final concentration: 1.111 μM, 0.555% MeOH). The final concentration of the liver microsome solution was 0.7 mg protein/mL.
(§3) Incubations of the liver microsome solutions were performed in a 96 well plate at 37° C. 90 μL of the liver microsome solutions were added to Blank, and 90 μL of working solution of the test compound was added to all plates except the Blank.
(§4) All plates thus obtained were warmed in water bath at 37° C. for 10 min, and 10 μL of NADPH co-factor solution comprising 42 mg of β-nicotinamide adenine dinucleotide phosphate (Sigma Cat. No. N0505 Lot 020M7009V), 84 mg of isocitric acid (Sigma Cat. No. 11252 Lot 119K1099) and 0.478 mL of isocitric dehydrogenase (Sigma Cat. No. 12002 Lot 086K7055, 15 units/mg protein, warmed in water bath at 37° C. for 5 min was added to the plates. The resulting plates were incubated at 37° C. in the following order: T60 (The test compounds were incubated with the liver microsomal solution and NADPH for 60 min at 37° C.), T30 (such as for 30 min.), and T10 (such as for 10 min.). 300 μL of a cold (4° C.) stop solution (acetonitrile (ACN) including 500 nM of tolbutamide as internal standard) and 10 μL of NADPH co-factor solution to starting plate (T0: 100% of the parent compound without any reaction) were added to the plates. The reaction was stopped by adding 300 μL of the cold (4° C.) stop solution to the other plates in the following order: T10 first, then T30 and T60.
(§5) The samples were centrifuged at 4,000 rpm for 20 min and transferred to Bioanalytical Services for liquid chromatography-mass spectrometry (LC-MS)/MS (Waters UPLC/API 4000, 10 μL injection) analysis.

[2] = Human liver microsomal stability/clearance; format: in vitro ADME
Method: as §1, §2, §3, §4, §5

[3] = test system: MV4-11 (human leukemia cell line); assay: Anti-proliferative activity test (CellTiter-Glo), MV4-11; format: cell-based; details: second value of LnCAP/MV4-11 cell, read-out: Cell proliferation IC50 (MV4-11)
Method: (§6) IC50 (uM) of the compounds obtained in Examples 1 to 18 against hematological cancer cells and solid tumors was measured for identifying anti-proliferative activities.
(§7) A human prostatic adenocarcinoma cell line, LnCAP (ATCC®, CRL-1740) and human leukemia cell line MV4-11 (ATCC®, CRL-9591) were used to test the degrees of the compounds 1 to 18 in inhibiting the cancer cell growth. The testing cell concentration was adjusted to 6.7×10^3 cells/ml with a culture medium supplemented with 10% FBS, in the temperature of 37° C., 5% CO2 and 95% humidity. Culture media and FBS were purchased from GIBCO. 90 μL of cell suspensions thus obtained was added to two 96-well plates with the final cell density of 600 cells/well, followed by addition of 10 μL of culture medium to each well of plate. The plates were incubated overnight in a humidified incubator at 37° C. with 5% CO2.
(§8) Compounds 1 to 18 were each dissolved with dimethylsulfoxide (DMSO) or phosphate buffer solution (PBS) as a stock solution, and 200× solutions of test compound (2 mM) using DMSO were prepared. Then, the DMSO solution thus obtained was diluted 20-fold with culture medium or PBS to obtain 10× working solution. 10 μL of 10× working solution (drug solution) was dispensed to each well (triplicate for each concentration). The final concentration of DMSO in culture medium was 0.5% [v/v].
(§9) Cell viability was determined using CellTiter-Glo® (CTG) assay. 100 μL of CellTiter-Glo® was added to the equal volume of the cultured cells to read luminescence in EnVision Multi Label Reader.

[4] = test system: LnCAP (human prostatic adenocarcinoma cell line); assay: Anti-proliferative activity test (CellTiter-Glo), LnCAP; format: cell-based; details: first value of LnCAP/MV4-11 cell, read-out: Cell proliferation IC50 (LnCAP)
Method: as §6, §7, §8, §9

[5] = mouse liver microsomes, second value of Human/Mouse cell, read-out: Liver microsomal clearance (Mouse)
[6] = human liver microsomes, first value of Human/Mouse cell, read-out: Liver microsomal clearance (Human)

## COc1ccc2c(c1)C(c1ccc(Cl)cc1)=N[C@@H](COS(=O)(=O)c1ccccc1)c1nnc(C)n1-2 [Compound 5, (R)-(6-(4-chlorophenyl)-8-methoxy-1-methyl-4H-benzo[f][1,2,4]triazolo[4,3-a][1,4]diazepin-4-yl)methyl benzenesulfonate]
Human BRD4 bromodomain 1
  IC50: 900 nM

## CNS(=O)(=O)OC[C@@H]1N=C(c2ccc(Cl)cc2)c2c(sc(C)c2C)-n2c(C)nnc21 [Compound 18, (R)-(4-(4-chlorophenyl)-2,3,9-trimethyl-6H-thieno[3,2-f][1,2,4]triazolo[4,3-a][1,4]diazepin-6-yl)methyl methylsulfamate]
Human BRD4 bromodomain 1
  IC50: 160 nM
[1]; mouse, microsomes
  microsomal CLint at 1 µM: 49 µL/min/mg
[2]; human, microsomes
  microsomal CLint at 1 µM: 51 µL/min/mg

## Cc1nnc2n1-c1ccc(-c3cnn(CC(=O)N(C)C)c3)cc1C(c1ccc(Cl)cc1)=N[C@H]2COS(C)(=O)=O [Compound 13, (R)-(6-(4-chlorophenyl)-8-(1-(2-(dimethylamino)-2-oxoethyl)-1H-pyrazol-4-yl)-1-methyl-4H-benzo[f][1,2,4]triazolo[4,3-a][1,4]diazepin-4-yl)methyl methanesulfonate]
[3]
  IC50: 290 nM
Human BRD4 bromodomain 1
  IC50: 110 nM
[1]; [5]
  microsomal CLint at 1 µM: 7.4 µL/min/mg
[4]
  IC50: 430 nM
[2]; [6]
  microsomal CLint at 1 µM: 12.3 µL/min/mg

## Cc1sc2c(c1C)C(c1ccc(Cl)cc1)=N[C@@H](COS(=O)(=O)N(C)C)c1nnc(C)n1-2 [Compound 17, (R)-(4-(4-chlorophenyl)-2,3,9-trimethyl-6H-thieno[3,2-f][1,2,4]triazolo[4,3-a][1,4]diazepin-6-yl)methyl dimethylsulfamate]
Human BRD4 bromodomain 1
  IC50: 900 nM
[1]; mouse, microsomes
  microsomal CLint at 1 µM: 138 µL/min/mg
[2]; human, microsomes
  microsomal CLint at 1 µM: 171 µL/min/mg

## Cc1nnc2n1-c1ccc(C(=O)NCCO)cc1C(c1ccc(Cl)cc1)=N[C@H]2COS(C)(=O)=O [Compound 14, (R)-(6-(4-chlorophenyl)-8-((2-hydroxyethyl)carbamoyl)-1-methyl-4H-benzo[f][1,2,4]triazolo[4,3-a][1,4]diazepin-4-yl)methyl methanesulfonate]
Human BRD4 bromodomain 1
  IC50: 380 nM
[1]; [5]
  microsomal CLint at 1 µM: 6.3 µL/min/mg
[2]; [6]
  microsomal CLint at 1 µM: 8.3 µL/min/mg

## Cc1sc2c(c1C)C(c1ccc(Cl)cc1)=N[C@@H](COS(N)(=O)=O)c1nnc(C)n1-2 [Compound 16, (R)-(4-(4-chlorophenyl)-2,3,9-trimethyl-6H-thieno[3,2-f][1,2,4]triazolo[4,3-a][1,4]diazepin-6-yl)methyl sulfamate]
Human BRD4 bromodomain 1
  IC50: 250 nM
[1]; mouse, microsomes
  microsomal CLint at 1 µM: 9 µL/min/mg
[2]; human, microsomes
  microsomal CLint at 1 µM: 10 µL/min/mg

## CCCS(=O)(=O)OC[C@@H]1N=C(c2ccc(Cl)cc2)c2cc(OC)ccc2-n2c(C)nnc21 [Compound 3, (R)-(6-(4-chlorophenyl)-8-methoxy-1-methyl-4H-benzo[f][1,2,4]triazolo[4,3-a][1,4]diazepin-4-yl)methyl propane-1-sulfonate]
[3]
  IC50: 1810 nM
Human BRD4 bromodomain 1
  IC50: 390 nM
[1]; [5]
  microsomal CLint at 1 µM: 39.7 µL/min/mg
[4]
  IC50: 830 nM
[2]; [6]
  microsomal CLint at 1 µM: 71.3 µL/min/mg

## Cc1nnc2n1-c1ccccc1C(c1ccc(Cl)cc1)=N[C@H]2COS(C)(=O)=O [Compound 6, (R)-(6-(4-chlorophenyl)-1-methyl-4H-benzo[f][1,2,4]triazolo[4,3-a][1,4]diazepin-4-yl)methyl methanesulfonate]
Human BRD4 bromodomain 1
  IC50: 1410 nM

## Cc1nnc2n1-c1ccc(-c3cnn(CC(N)=O)c3)cc1C(c1ccc(Cl)cc1)=N[C@H]2COS(C)(=O)=O [Compound 12, (R)-(8-(1-(2-amino-2-oxoethyl)-1H-pyrazol-4-yl)-6-(4-chlorophenyl)-1-methyl-4H-benzo[f][1,2,4]triazolo[4,3-a][1,4]diazepin-4-yl)methyl methanesulfonate]
[3]
  IC50: 1070 nM
Human BRD4 bromodomain 1
  IC50: 110 nM
[1]; [5]
  microsomal CLint at 1 µM: 6.9 µL/min/mg
[4]
  IC50: 44000 nM
[2]; [6]
  microsomal CLint at 1 µM: 5.6 µL/min/mg

## COc1ccc2c(c1)C(c1ccc(Cl)cc1)=N[C@@H](COS(=O)(=O)C1CC1)c1nnc(C)n1-2 [Compound 4, (R)-(6-(4-chlorophenyl)-8-methoxy-1-methyl-4H-benzo[f][1,2,4]triazolo[4,3-a][1,4]diazepin-4-yl)methyl cyclopropanesulfonate]
[3]
  IC50: 690 nM
Human BRD4 bromodomain 1
  IC50: 420 nM
[1]; [5]
  microsomal CLint at 1 µM: 8.9 µL/min/mg
[4]
  IC50: 130 nM
[2]; [6]
  microsomal CLint at 1 µM: 6.3 µL/min/mg

## CNS(=O)(=O)OC[C@@H]1N=C(c2ccc(Cl)cc2)c2cc(OC)ccc2-n2c(C)nnc21 [Compound 10, (R)-(6-(4-chlorophenyl)-8-methoxy-1-methyl-4H-benzo[f][1,2,4]triazolo[4,3-a][1,4]diazepin-4-yl)methyl methylsulfamate]
[3]
  IC50: 350 nM
Human BRD4 bromodomain 1
  IC50: 400 nM
[1]; [5]
  microsomal CLint at 1 µM: 21 µL/min/mg
[4]
  IC50: 570 nM
[2]; [6]
  microsomal CLint at 1 µM: 29 µL/min/mg

## COc1ccc2c(c1)C(c1ccc(Cl)cc1)=N[C@@H](COS(=O)(=O)N(C)C)c1nnc(C)n1-2 [Compound 9, (R)-(6-(4-chlorophenyl)-8-methoxy-1-methyl-4H-benzo[f][1,2,4]triazolo[4,3-a][1,4]diazepin-4-yl)methyl dimethylsulfamate]
[3]
  IC50: 1490 nM
Human BRD4 bromodomain 1
  IC50: 280 nM
[1]; [5]
  microsomal CLint at 1 µM: 86 µL/min/mg
[4]
  IC50: 1900 nM
[2]; [6]
  microsomal CLint at 1 µM: 126 µL/min/mg
